Here are results for 23 compounds from patent US8058285B2, “Substituted pyrido [3′, 2′: 4, 5] thieno [3, 2-D] pyrimidines and pyrido [3′, 2′: 4, 5] furo [3, 2-D] pyrimidines used as inhibitors of the PDE-4 and/or the release of TNF-ALPHA” (The Medicines Company (Leipzig) GmbH, priority 2004, dated 2011).

In series [1] the target is T1, PDE-4A (Homo sapiens, UniProt P27815).
T1 construct: PDE-4A catalytic domain comprising amino acids 342-704; made in house; host or cells: Escherichia coli
Briefly: PDE-4A inhibitory assay (SPA). The series is classed as biochemical. The gist of the method: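 Human recombinant PDE-4A catalytic domain (aa 342-704), E. coli-expressed. SPA with 1 μM [^3H]-cAMP substrate in 100 mM Tris-HCl pH 7.5, 5 mM MgCl2, 1% DMSO; 20 min at 22° C. Non-specific activity with 100 μM rolipram subtracted.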

For series [2], the system named is TNFα release. Kind of series: LPS-induced TNFα release in diluted human blood (ELISA). The series is classed as cell-based. Particulars: LPS 1 μg/ml, human blood diluted 1:5, 24 h; read-out: IC50 value in the TNFα inhibitory assay. An excerpt:
Isolated leukocytes can be stimulated for the release of cytokines in different ways. Lipopolysaccharides (LPS) are a stimulus for the investigation of the TNFα release. LPS is part of bacterial cell walls and is released when the bacteria are killed (by antibiotics or the natural immune system). LPS stimulates in particular the activity of phagocytizing leukocytes (tissue macrophages, granulocytes, monocytes) and causes the infiltration of leukocytes from the peripheral blood into the affected tissue. A cytokine of special significance for these mechanisms is TNFα which is secreted in large amounts by the affected cells. The main source are here monocytes and macrophages. TNFα initiates and prolongs the inflammatory process in cooperation with other mediators.
For the investigation of the effect on the LPS-induced TNFα release a method was used which was described by Marx, D., Tassabehji, M., Heer, S., Hüttenbrink, K.-B., and I. Szelenyi, Pulmonary Pharmacology & Therapeutics (2002) 15, 7-15. The method is briefly: Human blood was taken from various donors, rendered incoagulable by the addition of 10 mM Na citrate and diluted 1:5 with RPMI 1640 cell culture medium. The test substances were added to the blood samples at various concentrations. 15 min later, the leukocytes were stimulated by the addition of lipopolysaccharides (LPS) from Salmonella abortus equi at a final concentration of 1 μg/ml. After the incubation of the test batches at 37° C. and under 5% CO2 in a water-saturated air for 24 h, the blood was centrifuged and the TNFα concentration in the cell-free supernatant was accurately measured using a purchasable ELISA (BD Biosciences) according to the manufacturer's instructions.
For orientation: ELISA stands for enzyme-linked immunosorbent assay.

For series [3], the system named is murine neuroblastoma cell line N2a. Briefly: Induction of axon growth in N2a cells. Format: cell-based. Particulars: 1 μM in the test batch, after 72 h, listed as 7-(3,4-dimethoxyphenyl)-4-ethoxy-9-methyl-2-piperazin-1-yl-pyrido[3′,2′:4,5]-thi. An excerpt:
The inventors have tested some PDE4 inhibitors according to the invention for induction of axon growth with the murine neuroblastoma cell line N2a. It turned out that in particular the substances 4-ethoxy-9-ethyl-7-(3,4-methylenedioxyphenyl)-2-piperazin-1-yl-pyrido[3′,2′:4,5]thieno[3,2-d]-pyrimidine and 7-(3,4-dimethoxyphenyl)-4-ethoxy-9-methyl-2-piperazin-1-yl-pyrido[3′,2′:4,5]thieno[3,2-d]pyrimidine hydrochloride were able to induce the growth of long processes (“axons”) having a length of up to […] at concentrations of 1 μM in the test batch after 72 h (FIGS. 1a and 1b).

Series [4] has as its system CLL cells. Kind of series: Cytotoxicity on CLL cells, formazan reduction assay (MTT test). Particulars: 1 μM, 24 h incubation of the patient's blood, primary CLL. As to the method:
The positive control used was fludarabine which is employed for CLL as a standard chemotherapeutic agent.
The cytotoxicity of the CLL cells was determined by means of a commercially available formazan reduction assay (MTT test) after 24 h of incubation of the patient's blood with the active substances.
On the technique in general: Formazan colour is commonly taken as a measure of viable cells.

In series [5] the test system is PDE-4. Particulars: cited from earlier work.

T1 sequence (P27815 342-704): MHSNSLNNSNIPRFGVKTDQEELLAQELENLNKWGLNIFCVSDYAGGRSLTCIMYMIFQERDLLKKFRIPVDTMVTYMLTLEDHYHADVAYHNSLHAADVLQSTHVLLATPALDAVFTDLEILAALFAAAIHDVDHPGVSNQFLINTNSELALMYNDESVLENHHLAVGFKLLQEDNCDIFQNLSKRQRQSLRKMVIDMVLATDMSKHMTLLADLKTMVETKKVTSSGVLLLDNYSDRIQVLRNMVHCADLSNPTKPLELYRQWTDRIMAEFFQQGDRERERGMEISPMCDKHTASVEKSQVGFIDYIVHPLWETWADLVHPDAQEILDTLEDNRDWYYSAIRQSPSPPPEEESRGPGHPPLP

Take `CCOc1nc(N2CCNCC2)c2oc3nc(-c4ccccc4)cc(C)c3c2n1` [2-Ethoxy-7-phenyl-9-methyl-4-(piperazin-1-yl)-pyrido[3′,2′:4,5]furo[3,2-d]pyrimidine]: the melting point was determined as 175 °C. For the same compound, the IC50 in series [1] was in the range of 2 to 50 nM.

On to `CCOc1nc(N2CCNCC2)nc2c1sc1nc(-c3ccc(OC)c(OC)c3)cc(C)c12.Cl` [4-Ethoxy-7-(3,4-dimethoxy-phenyl)-9-methyl-2-(piperazin-1-yl)-pyrido[3′,2′:4,5]thieno[3,2-d]pyrimidine-hydrochloride], for which, in series [2], the IC50 was below 2000 nM. Further, the length of induced long processes (axons) in series [3] was at most 300 µm.

In the case of `CCOc1nc(N2CCNCC2)nc2c1sc1nc(-c3ccc(F)cc3)cc(C)c12` [4-Ethoxy-7-(4-fluoro-phenyl)-9-methyl-2-(piperazin-1-yl)-pyrido[3′,2′:4,5]thieno[3,2-d]pyrimidine], the figures for the IC50 in series [1] and in series [2] were 2 to 50 nM and below 2000 nM, respectively.

With `CCOc1nc(N2CCNCC2)nc2c1sc1nc(-c3ccc(OC)cc3)cc(C)c12` [4-Ethoxy-7-(4-methoxy-phenyl)-9-methyl-2-(piperazin-1-yl)-pyrido[3′,2′:4,5]thieno[3,2-d]pyrimidine], the IC50 in series [1] is 2 to 50 nM; in series [2] it was below 2000 nM.

For `CCOc1nc(N2CCNCC2)nc2c1sc1nc(N3CCOCC3)cc(-c3ccccc3)c12` [4-Ethoxy-7-morpholino-9-phenyl-2-(piperazin-1-yl)-pyrido[3′,2′:4,5]thieno[3,2-d]pyrimidine], the IC50 is 2 to 50 nM in series [1] and below 2000 nM in series [2].

For the compound `CCOc1nc(N2CCNCC2)nc2c1oc1nc(-c3ccccc3)cc(C)c12` [4-Ethoxy-7-phenyl-9-methyl-2-(piperazin-1-yl)-pyrido[3′,2′:4,5]furo[3,2-d]pyrimidine], the melting point lay in the range of 131 to 132 °C. Moreover, the IC50 in series [1] lay in the range of 2 to 50 nM.

Turning to `CCOc1nc(N2CCNCC2)nc2c1sc1nc(-c3ccc(-c4cc[nH]c4)cc3)nc(C)c12` [4-Ethoxy-9-methyl-2-piperazin-1-yl-7-(4-[3-pyrrolyl]-phenyl)-thieno[2,3-d:4,5-d′]dipyrimidine], the IC50 in series [1] is 2 to 50 nM; in series [2], below 2000 nM.

`C=Cc1ccc(-c2nc(C)c3c(n2)sc2c(OCC)nc(N4CCNCC4)nc23)cc1` [4-Ethoxy-9-methyl-2-piperazin-1-yl-7-(4-vinyl-phenyl)-thieno[2,3-d:4,5-d′]dipyrimidine] registered a melting point of 165 to 166 °C. The same compound displayed an IC50 in series [1] of 2 to 50 nM.

For the compound `CCOc1nc(N2CCNCC2)nc2c1sc1nc(-c3ccc(-c4cccc(N)c4)cc3)nc(C)c12` [7-(3′-Aminobiphen-4-yl)-4-ethoxy-9-methyl-2-piperazin-1-yl-thieno[2,3-d:4,5-d′]dipyrimidine], the IC50 is below 2 nM in series [1] and below 2000 nM in series [2].

In the case of `CCOc1nc(N2CCNCC2)nc2c1sc1nc(-c3ccc(C(O)CO)cc3)nc(C)c12` (centres unmarked) [7-(4-[1,2-Dihydroxyethyl]-phenyl)-4-ethoxy-9-methyl-2-piperazin-1-yl-thieno[2,3-d:4,5-d′]dipyrimidine], the melting point was above 300 °C. The compound also displayed an IC50 in series [1] of 2 to 50 nM. In addition, the IC50 in series [2] was below 2000 nM.

Regarding `CCOc1nc(N2CCNCC2)nc2c1sc1nc(C)c(Cc3ccc(N)cc3)c(C)c12` [8-(4-Amino-benzyl)-4-ethoxy-7,9-dimethyl-2-(piperazin-1-yl)-pyrido[3′,2′:4,5]thieno[3,2-d]pyrimidine], the IC50 in series [1] is 2 to 50 nM; in series [2], below 2000 nM.

With `CCOc1nc(N2CCNCC2)nc2c1sc1nc(N3CCOCC3)c3c(c12)CCCC3` [8-Ethoxy-5-morpholino-10-piperazin-1-yl-pyrimido[4′,5′:4,5]thieno[2,3-c]-1,2,3,4-tetrahydro-isoquinoline], the IC50 in series [1] is 2 to 50 nM; in series [2], below 2000 nM.

`CCCOc1nc(N2CCNCC2)nc2c1sc1nc(-c3ccccc3)cc(C)c12` [9-Methyl-7-phenyl-2-(piperazin-1-yl)-4-n-propoxy-pyrido[3′,2′:4,5]thieno[3,2-d]pyrimidine]: the IC50 in series [1] was 2 to 50 nM; in series [2], below 2000 nM.

Regarding `CCOc1nc(N2CCNCC2)c2sc3nc(-c4ccccc4)nc(C)c3c2n1` [Example 2, 2-ethoxy-9-methyl-4-piperazin-1-yl-7-phenyl-thieno[2,3-d:4,5-d′]dipyrimidine], the melting point was above 310 °C.

The compound `C/C=C/C=C/C(O)c1ccc(-c2nc(C)c3c(n2)sc2c(OCC)nc(N4CCNCC4)nc23)cc1` (centres unmarked) [Example 6, 4-ethoxy-7-(4-[{2E,4E}-1-hydroxyhexa-2,4-dienyl]phenyl)-9-methyl-2-piperazin-1-yl-thieno[2,3-d:4,5-d′]dipyrimidine] registered a melting point of 149 to 150 °C.

On to `CCSc1nc(N2CCNCC2)c2sc3nc(-c4ccccc4)cc(C)c3c2n1` [Example 13, 2-ethylthio-9-methyl-7-phenyl-4-piperazin-1-yl-pyrido-[3′,2′:4,5]thieno[3,2-d]pyrimidine], for which the melting point was in the range of 150 to 154 °C.

In the case of `CCS(=O)(=O)c1nc(N2CCNCC2)c2sc3nc(-c4ccccc4)cc(C)c3c2n1` [Example 15, 2-ethylsulfonyl-9-methyl-7-phenyl-4-piperazin-1-yl-pyrido-[3′,2′:4,5]thieno[3,2-d]pyrimidine], the melting point was 190 °C (dec.).

Regarding `CCOc1nc(N2CCNCC2)nc2c1sc1nc(-c3ccc(NC=O)cc3)cc(C(F)(F)F)c12` [N-(4-(4-Ethoxy-9-trifluoromethyl-2-piperazin-1-yl-pyrido[3′,2′:4,5]thieno[3,2-d]pyrimidin-7-yl)-phenyl)-formamide], the IC50 in series [1] was below 2 nM; in series [2] it was below 2000 nM.

For `CCOc1nc(N2CCNCC2)nc2c1sc1nc(-c3ccc(NC(=O)c4ccncc4)cc3)cc(C(F)(F)F)c12` [N-(4-(4-Ethoxy-9-trifluoromethyl-2-piperazin-1-yl-pyrido[3′,2′:4,5]thieno[3,2-d]pyrimidin-7-yl)-phenyl)-isonicotinamide], the half-maximal inhibitory concentration (IC50) in series [1] was below 2 nM; in series [2], below 2000 nM.

Regarding `CCOc1nc(N2CCNCC2)nc2c1sc1nc(-c3ccc(NC(=O)c4cccnc4)cc3)cc(C(F)(F)F)c12` [N-(4-(4-Ethoxy-9-trifluoromethyl-2-piperazin-1-yl-pyrido[3′,2′:4,5]thieno[3,2-d]pyrimidin-7-yl)-phenyl)-nicotinamide], the values for the IC50 in series [1] and in series [2] were below 2 nM and below 2000 nM, respectively.

`CCOc1nc(N2CCNCC2)nc2c1sc1nc(-c3ccc(C(N)=NO)cc3)cc(C(F)(F)F)c12` [N′-Hydroxy-4-(4-ethoxy-9-trifluoromethyl-2-piperazin-1-yl-pyrido[3′,2′:4,5]thieno[3,2-d]pyrimidin-7-yl)-benzamidine bistrifluoroacetate]: the values for the IC50 in series [1] and in series [2] were below 2 nM and below 2000 nM, respectively.

Turning to `Nc1nc(F)nc2c1ncn2[C@@H]1O[C@H](CO)[C@@H](O)[C@@H]1O` [fludarabine], the “cytotoxicity, share of the cells” value in series [4] was at most 60%.

Take `O=C(Nc1c(Cl)cncc1Cl)c1ccc(OC(F)F)c(OCC2CC2)c1` [roflumilast]: in series [5], the IC50 is 0.8 nM.

A word on the melting point: it is the temperature, or range, at which the solid turns liquid. What is called IC50 is the concentration that inhibits the measured activity by half.
